Legend:
[1] = system: mice; experiment: Acute toxicity (mortality 7 days after intraperitoneal administration); assay type: in vivo
Excerpt: (§1) The varied doses of N-(p-hydroxyphenyl)-L-glutamine in an aqueous 5% sodium carboxymethyl cellulose solution were intraperitoneally administered to the mice. The mortality 7 days after the administration was as follows: […]

[2] = as above; assay type: in vivo, mice; settings: mouse, in vivo, ip, mice, intraperitoneal
Excerpt: as §1

[3] = system: Daudi cells; experiment: Growth inhibition of tissue-culture cells (Daudi cells), trypane blue dye exclusion; assay type: cell-based, human
Description: Growth inhibition of tissue-culture cells
2.6×10^5 /ml tissue culture cells (Daudi cells) derived from human lymphocytes in RPMI-1640 medium supplemented with 10% fetal calf serum were incubated with varied concentration of N-(p-hydroxyphenyl)-L-glutamine for 72 hours at 37° C. The number of live cells was determined by the trypane blue dye exclusion test.

[4] = system: skin allograft; experiment: Prolongation of the skin allograft in rat (Fisher to Wister/MK); assay type: in vivo; settings: 25 mg/kg intraperitoneally everyday from day -7 until rejection; controls 9.0±1.6 days
Description: Prolongation of the skin allograft in rat Wister/MK rats received skin allografts from Fisher rats on day 0.
Recipient rats in the treatment group were administered intraperitoneally 25 mg/kg of N-(p-hydroxyphenyl)-L-glutamine dissolved in a phosphate buffer everyday from day - 7 until the day on which the rejection was observed. Rats treated with the compound rejected their grafts in 15.0±1.7 days, while controls rejected in 9.0±1.6 days.

[5] = system: Adjuvant arthritis in rats; experiment: Adjuvant arthritis in rats (hind foot volume); assay type: in vivo, Sprague-Dawley rats; settings: day 1 until day 21
Description: Effect of N-(p-hydroxyphenyl)-L-glutamine on Adjuvant arthritis in rats
Sprague-Dawley rats weighing 150 to 180 g were randomized in 6 groups and kept in a controlled evironment for 2 weeks prior to use. They were fed a standard diet and were allowed to drink water freely ad libitum.
On day 0, each rat was injected in the planter region of the right hind paw with 0.05 ml Freund's Complete Adjuvant containing 6 mg/ml of heat killed Mycobacterium butyricum (Difco) in sterile paraffin oil.
The volume of the injected (right) and non-injected (left) feet up to a mark on the tibio-tarsal joint was measured by water over-flow method.
The sensitized rats were dosed subcutaneously from day 1 until day 21 with either 12.5, 25, or 50 mg/kg of N-(p-hydroxyphenyl)-L-glutamine (γ-GHB), 2.5 mg/kg of prednisolone, and vehicle for control group.

[6] = system: nucleated cells in the spleen; experiment: Total number of nucleated cells in the spleen of immunized mice; assay type: in vivo, mice (ddY); settings: for Number of nucleated cells (No. of lymphocytes ± S.E.): 5 animals, day 4, untreated 228 ± 18.8
Description: Effect of N-(p-hydroxyphenyl)-L-glutamine on the total number of nucleated cells and the plaque forming cells in the spleen
The mice (ddY, 18 to 21 g) were intraperitoneally immunized with 1×10^8 sheep blood cells. The N-(p-hydroxyphenyl)-L-glutamine was administered subcutaneously on day 0, 1, 2 and 3. On day 4, the mice were sacrificed and the plaque forming cells in the spleen were determined according to the modified Cunningham's method (H. Fujiwara et al.; Experimental Method of Immunology Vol. 5, 1475 (1975)).
Total number of the nucleated cells in the spleen were counted after lysing erythrocytes with 0.5% acetic acid.

[7] = system: human lymphocytes; experiment: Inhibition of blastogenesis of human lymphocytes induced by phytohemagglutinin (PHA), 3H-thymidine uptake; assay type: cell-based; settings: for % Inhibition (3H-thymidine uptake by PHA-stimulated lymphocytes): 72 hours
Description: Inhibition of the blastogenesis of the human lymphocytes induced by phytohemagglutinin (PHA)
1.5×10^5 human lymphocytes in RPMI-1 640 medium (produced by GIBCO) supplemented with 10 wt. % fetal calf serum were incubated with 0.1 μl of PHA and in the presence or absence of N-(p-hydroxyphenyl)-L-glutamine (total volume: 0.1 ml) in a CO2 incubator at 37° C. for 72 hours. 0.1 μCi of ^3 H-thymidine was pulsed 7 hour before harvesting the cells. The lymphocytes were harvested and the radioactivity incorporated into the cells were counted.

[8] = system: plaque forming cells in the spleen; experiment: Plaque forming cells in the spleen of mice immunized with sheep blood cells (modified Cunningham's method); assay type: in vivo, mice (ddY); settings: for PFC (No. of PFC ± S.E.): 5 animals, day 4, untreated 163 ± 64
[9] = system: murine spleen cells; experiment: Cytotoxic effect on the murine spleen cells, trypane-blue dye exclusion; assay type: cell-based; settings: within the range of the concentration tested
Description: (§2) Cytotoxic effect on the murine spleen cells 1×10^6 /ml murine spleen cells in RPMI-1640 medium supplemented with 5% fetal calf serum were incubated with a varied concentration of N-(p-hydroxyphenyl)-L-glutamine for 48 hours at 37° C. And then the viability of the cells was determined by the trypane-blue dye exclusion test.

[10] = as above; assay type: cell-based; settings: mouse, spleen cells, 48 hours, 86 at 0
Description: as §2

[11] = 12.5, 25 or 50 mg/kg subcutaneously
[12] = 50 mg/kg subcutaneously on day 0, 1, 2 and 3
[13] = 100 mg/kg subcutaneously on day 0, 1, 2 and 3

In the case of `N[C@@H](CCC(=O)Nc1ccc(O)cc1)C(=O)O`, the “No. of dead mice/No. of treated mice” value ([1]; 1.768 g/kg intraperitoneally) is reported as 0/5, the “No. of dead mice/No. of treated mice” value ([1]; 2.5 g/kg intraperitoneally) is reported as 0/5 and the “No. of dead mice/No. of treated mice” value ([1]; 3.535 g/kg intraperitoneally) is reported as 1/5. For the same compound, the “No. of dead mice/No. of treated mice” value ([1]; 5 g/kg intraperitoneally) was 2/5, the “No. of dead mice/No. of treated mice” value ([1]; 10 g/kg intraperitoneally) was 1/1 and the LD50 at 168 h [2] was over 5000 mg/kg. The inhibition at 40 µg/mL ([3]; Homo sapiens, Daudi, 40 μg/ml) was about 90%, the live cell growth (% of control) at 400 µg/mL ([3]; Homo sapiens, Daudi, 400 μg/ml, 72 hours, read-out: Inhibition (%) (Control equals 100)) was 0% and the “growth inhibition with delayed addition (in words)” value ([3]; addition delayed from 24 hours to 48 hours after start of incubation) was “gradually decreased”. For the same compound, the “growth inhibition with exposure for first 24 hours only (in words)” value ([3]; present for first 24 hours of 72 hours incubation) was “did not exhibit any growth inhibition”, the “time to rejection of skin graft” value [4] was 15.0 ± 1.7 days and the “left (non-injected) hind foot swelling (in words)” value [5, 11] was “reduced significantly”. For the same compound, the “right (injected) hind foot swelling (in words)” value [5, 11] was “reduced significantly”, the “total number of the nucleated cells in the spleen (in words)” value ([6]; 50 mg/kg) was “did not affect” and the “Number of nucleated cells (No. of lymphocytes ± S.E.)” value (shortened to “Number … (No. of lymphocytes ± S.E.)”) [6, 12] was 176 ± 13.7 × 10^6 /spleen. For the same compound, the “Number … (No. of lymphocytes ± S.E.)” value [6, 13] was 226 ± 39.1 × 10^6 /spleen, the “inhibition of PHA-induced blastogenesis (in words)” value ([7]; 40 μg/ml) was “complete inhibition” and the “inhibition of PHA-induced blastogenesis, delayed addition (in words)” value ([7]; 40 μg/ml added 0, 12, 24 and 48 hours after PHA stimulation) was “almost complete inhibition”. For the same compound, the “% Inhibition (3H-thymidine uptake by PHA-stimulated lymphocytes)” value (“% Inhibition” below) ([7]; 0.04 μ/ml) was 14%, the “% Inhibition” value ([7]; 0.4 μ/ml) was 27% and the “% Inhibition” value ([7]; 4 μ/ml) was 67%. The “% Inhibition” value ([7]; 40 μ/ml) was 99%, the “production of plaque forming cells (in words)” value ([8]; 50 mg/kg) was “significantly inhibited” and the “PFC (No. of PFC ± S.E.)” value [8, 12] was 65.6 ± 9.5 × 10^3 /spleen. The “PFC (No. of PFC ± S.E.)” value [8, 13] was 65.3 ± 14.0 × 10^3 /spleen, the “cytotoxic effect on the murine spleen cells (in words)” value [9] was “did not exhibit any cytotoxic effect” and the viability at 48 h ([10]; concentration 10 (unit inferred)) was 83%. It also gave a viability at 48 h ([10]; concentration 100 (unit inferred)) of 87%.

In the case of `Sc1ncnc2nc[nH]c12` [6-Mercaptopurine, reference compound], the “Number … (No. of lymphocytes ± S.E.)” value ([6]; 25 mg/kg) is reported as 78 ± 9.5 × 10^6 /spleen and the “PFC (No. of PFC ± S.E.)” value ([8]; 25 mg/kg) is reported as 18.8 ± 7.9 × 10^3 /spleen.

With `C[C@]12C=CC(=O)C=C1CC[C@@H]1[C@@H]2[C@@H](O)C[C@@]2(C)[C@H]1CC[C@]2(O)C(=O)CO` [prednisolone, reference compound] the “left (non-injected) hind foot swelling (in words)” value ([5]; 2.5 mg/kg subcutaneously) was “reduced significantly” and the “right (injected) hind foot swelling (in words)” value ([5]; 2.5 mg/kg subcutaneously) was “reduced significantly”.
